Results taken from the supplement of paper PMC10331698.
± gives the standard deviation of the averaged measurements.

How the values were obtained:
Test in all cases: level (log10 ratio to DMSO vehicle control); higher = higher biomarker level / cell amount than vehicle control
[1] = compound: C=C(C)C(=O)OCCC(F)(F)C(F)(F)C(F)(F)C(F)(F)C(F)(F)C(F)(F)F [6:2 Fluorotelomer methacrylate]; conditions: in DMSO
Protocol: (§1)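 BioMAP Diversity Plus panel of 12 human primary cell co-culture systems (3C, 4H, LPS, SAg, BT, BF4T, BE3C, CASM3C, HDF3CGF, KF3CT, MyoF, Mphg). Compounds were added 1 h before stimulation and left for 24 h (MyoF 48 h; BT 72 h for soluble read-outs or 6 d for IgG). Biomarkers were read by ELISA, cytotoxicity by SRB, PBMC viability and proliferation by Alamar Blue. Each well value was divided by the mean of 8 DMSO control wells on the same plate and log10 transformed; duplicate blinded samples were tested at 4 concentrations.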

[2] = compound: C=CC(=O)OCC(F)(F)C(F)(F)C(F)(F)COC(=O)C=C [1H,1H,5H,5H-Perfluoro-1,5-pentanediol diacrylate]; conditions: 6700 nM; in DMSO
Protocol: as §1

[3] = compound: COC(=O)C(F)(F)C(F)(F)OC(F)(C(F)(F)F)C(F)(F)OC(F)=C(F)F [Methyl perfluoro(3-(1-ethenyloxypropan-2-yloxy)propanoate)]; conditions: in DMSO
Protocol: as §1

[4] = compound: FC(F)(F)C(F)(F)C(F)(F)C(F)(F)C(F)(F)C(F)(F)C(F)(F)I [1-Iodopentadecafluoroheptane]; conditions: in DMSO
Protocol: as §1

[5] = compound: FC(F)(F)C(F)(F)C(F)(F)C(F)(F)C(F)(F)C(F)(F)CC1CO1 [3-(Perfluorohexyl)-1,2-epoxypropane]; conditions: in DMSO
Protocol: as §1

[6] = compound: FC(F)(F)C(F)(F)C(F)(F)CC1CO1 [1H,1H-Heptafluorobutyl epoxide]; conditions: in DMSO
Protocol: as §1

Heptafluorobutyl iodide = compound: FC(F)(F)C(F)(F)C(F)(F)CI [Heptafluorobutyl iodide]; conditions: in DMSO
Protocol: as §1

[7] = compound: FC(F)(F)C(F)(F)CNCC(F)(F)C(F)(F)F [Bis(1H,1H-perfluoropropyl)amine]; conditions: in DMSO
Protocol: as §1

Octafluoroadipamide = compound: NC(=O)C(F)(F)C(F)(F)C(F)(F)C(F)(F)C(N)=O [Octafluoroadipamide]; conditions: in DMSO
Protocol: as §1

Nonafluoropentanamide = compound: NC(=O)C(F)(F)C(F)(F)C(F)(F)C(F)(F)F [Nonafluoropentanamide]; conditions: in DMSO
Protocol: as §1

[8] = compound: NC(=O)C(F)(F)C(F)(F)C(F)(F)C(F)F; conditions: in DMSO
Protocol: as §1

[9] = compound: NS(=O)(=O)C(F)(F)C(F)(F)C(F)(F)C(F)(F)C(F)(F)C(F)(F)F [Perfluorohexanesulfonamide]; conditions: in DMSO
Protocol: as §1

[10] = compound: O=C(O)C(F)(F)C(F)(F)C(F)(F)C(F)(F)C(F)(F)C(F)(F)C(F)(F)C(F)(F)C(F)(F)C(F)F [11-H-Perfluoroundecanoic acid]; conditions: in DMSO
Protocol: as §1

[11] = compound: O=C(O)C=CC(F)(C(F)(F)F)C(F)(F)F [3-(Perfluoroisopropyl)-2-propenoic acid]; conditions: in DMSO
Protocol: as §1

[12] = compound: O=S(=O)(Cl)C(F)(F)C(F)(F)C(F)(F)C(F)(F)C(F)(F)C(F)(F)C(F)(F)C(F)(F)F [Perfluoro-1-octanesulfonyl chloride]; conditions: in DMSO
Protocol: as §1

[13] = compound: O=S(=O)(F)C(F)(F)C(F)(F)C(F)(F)C(F)(F)C(F)(F)C(F)(F)C(F)(F)C(F)(F)F [Perfluorooctanesulfonyl fluoride]; conditions: in DMSO
Protocol: as §1

[14] = compound: O=S(=O)(O)C(F)(F)C(F)(F)C(F)(F)C(F)(F)C(F)(F)C(F)(F)C(F)(F)C(F)(F)C(F)(F)C(F)(F)F [Sodium perfluorodecanesulfonate]; conditions: in DMSO
Protocol: as §1

[15] = compound: O=S(=O)(O)CCC(F)(F)C(F)(F)C(F)(F)C(F)(F)C(F)(F)C(F)(F)F [6:2 Fluorotelomer sulfonic acid]; conditions: in DMSO
Protocol: as §1

Hexafluoroamylene glycol = compound: OCC(F)(F)C(F)(F)C(F)(F)CO [Hexafluoroamylene glycol]; conditions: in DMSO
Protocol: as §1

## BT:sIL-17F
[1]; 6700 nM
  level (log10): -0.0095 ± 0.032
[1]; 20000 nM
  level (log10): -0.023 ± 0.02
[1]; 60000 nM
  level (log10): -0.046 ± 0.014
[2]
  level (log10): -1 ± 0.04
[3]; 6700 nM
  level (log10): -0.027 ± 0.018
[3]; 20000 nM
  level (log10): -0.064 ± 0.12
[4]; 6700 nM
  level (log10): -0.0435 ± 0.049
[4]; 20000 nM
  level (log10): -0.0545 ± 0.16
[5]; 6700 nM
  level (log10): -0.051 ± 0.15
[5]; 20000 nM
  level (log10): -0.012 ± 0.096
[5]; 60000 nM
  level (log10): -0.0315 ± 0.079
[6]; 6700 nM
  level (log10): 0.0235 ± 0.015
[6]; 20000 nM
  level (log10): -0.0505 ± 0.063
[6]; 60000 nM
  level (log10): 0.0025 ± 0.1
Heptafluorobutyl iodide; 6700 nM
  level (log10): 0.033 ± 0.078
Heptafluorobutyl iodide; 20000 nM
  level (log10): 0.031 ± 0.016
Heptafluorobutyl iodide; 60000 nM
  level (log10): 0.029 ± 0.033
[7]; 6700 nM
  level (log10): -0.088 ± 0.042
[7]; 20000 nM
  level (log10): -0.0175 ± 0.076
[7]; 60000 nM
  level (log10): 0.0375 ± 0.0064
Octafluoroadipamide; 6700 nM
  level (log10): 0.0465 ± 0.057
Octafluoroadipamide; 20000 nM
  level (log10): 0.073 ± 0.05
Octafluoroadipamide; 60000 nM
  level (log10): 0.06 ± 0.082
Nonafluoropentanamide; 6700 nM
  level (log10): -0.0305 ± 0.12
Nonafluoropentanamide; 20000 nM
  level (log10): -0.0695 ± 0.14
Nonafluoropentanamide; 60000 nM
  level (log10): -0.101 ± 0.15
[8]; 6700 nM
  level (log10): 0.0335 ± 0.019
[8]; 20000 nM
  level (log10): -0.0275 ± 0.015
[8]; 60000 nM
  level (log10): -0.018 ± 0.023
[9]; 6700 nM
  level (log10): -0.0125 ± 0.11
[9]; 20000 nM
  level (log10): 0.054 ± 0.041
[9]; 60000 nM
  level (log10): -0.13 ± 0.027
[10]; 6700 nM
  level (log10): 0.0115 ± 0.0092
[10]; 20000 nM
  level (log10): -0.0225 ± 0.049
[11]; 6700 nM
  level (log10): -0.088 ± 0.081
[11]; 20000 nM
  level (log10): -0.014 ± 0.054
[11]; 60000 nM
  level (log10): 0.0025 ± 0.043
[12]; 6700 nM
  level (log10): 0.062 ± 0.054
[12]; 20000 nM
  level (log10): 0.0385 ± 0.0035
[12]; 60000 nM
  level (log10): 0.0705 ± 0.012
[13]; 6700 nM
  level (log10): -0.0145 ± 0.032
[13]; 20000 nM
  level (log10): -0.0345 ± 0.079
[13]; 60000 nM
  level (log10): 0.035 ± 0.12
[14]; 1500 nM
  level (log10): -0.025 ± 0.083
[14]; 4400 nM
  level (log10): 0.0315 ± 0.1
[14]; 13000 nM
  level (log10): 0.0615 ± 0.19
[14]; 40000 nM
  level (log10): 0.025 ± 0.086
[15]; 6700 nM
  level (log10): 0.0005 ± 0.064
[15]; 20000 nM
  level (log10): 0.0725 ± 0.012
[15]; 60000 nM
  level (log10): 0.0155 ± 0.011
Hexafluoroamylene glycol; 6700 nM
  level (log10): 0.0185 ± 0.069
Hexafluoroamylene glycol; 20000 nM
  level (log10): 0.028 ± 0.041
Hexafluoroamylene glycol; 60000 nM
  level (log10): 0.05 ± 0.033

## CASM3C:Proliferation
[1]; 6700 nM
  level (log10): -0.0395 ± 0.046
[1]; 20000 nM
  level (log10): -0.042 ± 0.031
[1]; 60000 nM
  level (log10): 0.0115 ± 0.0092
[2]
  level (log10): -0.289 ± 0.086
[3]; 6700 nM
  level (log10): -0.012 ± 0.065
[3]; 20000 nM
  level (log10): 0.036 ± 0.05
[4]; 6700 nM
  level (log10): -0.003 ± 0.027
[4]; 20000 nM
  level (log10): -0.045 ± 0.0042
[5]; 6700 nM
  level (log10): 0.001 ± 0.021
[5]; 20000 nM
  level (log10): -0.0035 ± 0.005
[5]; 60000 nM
  level (log10): 0.027 ± 0.027
[6]; 6700 nM
  level (log10): -0.0175 ± 0.021
[6]; 20000 nM
  level (log10): -0.046 ± 0.05
[6]; 60000 nM
  level (log10): -0.026 ± 0.064
Heptafluorobutyl iodide; 6700 nM
  level (log10): -0.008 ± 0.0085
Heptafluorobutyl iodide; 20000 nM
  level (log10): 0.0235 ± 0.018
Heptafluorobutyl iodide; 60000 nM
  level (log10): 0.008 ± 0.024
[7]; 6700 nM
  level (log10): -0.115 ± 0.024
[7]; 20000 nM
  level (log10): 0.0135 ± 0.037
[7]; 60000 nM
  level (log10): -0.0005 ± 0.076
Octafluoroadipamide; 6700 nM
  level (log10): -0.029 ± 0.023
Octafluoroadipamide; 20000 nM
  level (log10): -0.0165 ± 0.05
Octafluoroadipamide; 60000 nM
  level (log10): -0.037 ± 0.051
Nonafluoropentanamide; 6700 nM
  level (log10): -0.032 ± 0.058
Nonafluoropentanamide; 20000 nM
  level (log10): -0.017 ± 0.03
Nonafluoropentanamide; 60000 nM
  level (log10): -0.0505 ± 0.035
[8]; 6700 nM
  level (log10): 0.002 ± 0.071
[8]; 20000 nM
  level (log10): -0.0145 ± 0.023
[8]; 60000 nM
  level (log10): 0.014 ± 0.025
[9]; 6700 nM
  level (log10): 0.0015 ± 0.013
[9]; 20000 nM
  level (log10): 0.0285 ± 0.03
[9]; 60000 nM
  level (log10): 0.0255 ± 0.018
[10]; 6700 nM
  level (log10): -0.0495 ± 0.015
[10]; 20000 nM
  level (log10): 0.0005 ± 0.043
[11]; 6700 nM
  level (log10): 0.0035 ± 0.019
[11]; 20000 nM
  level (log10): -0.009 ± 0.0085
[11]; 60000 nM
  level (log10): 0.009 ± 0.059
[12]; 6700 nM
  level (log10): -0.011 ± 0.078
[12]; 20000 nM
  level (log10): 0.007 ± 0.031
[12]; 60000 nM
  level (log10): -0.009 ± 0.011
[13]; 6700 nM
  level (log10): -0.0125 ± 0.044
[13]; 20000 nM
  level (log10): -0.0265 ± 0.032
[13]; 60000 nM
  level (log10): 0.0095 ± 0.0064
[14]; 1500 nM
  level (log10): 0.017 ± 0.0057
[14]; 4400 nM
  level (log10): 0.0585 ± 0.061
[14]; 13000 nM
  level (log10): -0.006 ± 0.059
[14]; 40000 nM
  level (log10): 0.0275 ± 0.03
[15]; 6700 nM
  level (log10): -0.0095 ± 0.029
[15]; 20000 nM
  level (log10): 0.024 ± 0.033
[15]; 60000 nM
  level (log10): 0.026 ± 0.018
Hexafluoroamylene glycol; 6700 nM
  level (log10): -0.0005 ± 0.0021
Hexafluoroamylene glycol; 20000 nM
  level (log10): -0.0235 ± 0.0092
Hexafluoroamylene glycol; 60000 nM
  level (log10): 0.007 ± 0.0014
